# Reference: patent US8637252B2, “Methods and compositions for determining altered susceptibility of HIV-1 to anti-HIV drugs” (Monogram Biosciences, Inc., priority 2011, dated 2014)
# Several values for one entry are separate records, joined by “and”; a condition that tells them apart may be missing. Equal values may be shown once.
# Tested on: HIV-1 (patient-derived RHIN segment)
# Experiment: phenotypic drug resistance test, resistance test vectors with patient-derived RHIN segment, luciferase, 293 cells
# Assay type: cell-based
# Text: Patient-derived segment(s) corresponding to the entire pol gene, encoding HIV protease, reverse transcriptase (including RNAse H), and integrase (hereinafter “POL”), the portion of pol encoding amino acids 1-305 of reverse transcriptase (hereinafter “PR-RT”), the portion of pol encoding amino acids 319-440 of reverse transcriptase (including RNAse H), and integrase (hereinafter “RHIN”), were amplified by the reverse transcription-polymerase chain reaction method (RT-PCR) using viral RNA isolated from viral particles present in the plasma or serum of HIV-infected individuals as described below. The portion of pol encoding protease, amino acids 1-531 of reverse transcriptase (including RNase H) (hereinafter “PRRT-RH”), or the portion of pol encoding protease, reverse transcriptase (including RNAse H) and integrase (hereinafter “PRRT-RHIN”), were assembled from amplicons described above by standard recombinant DNA techniques involving a KpnI restriction site at amino acid 400 or a Pin A1 site at amino acid 315.
# Virus was pelleted by centrifugation at 20,400×g for 60 min from plasma (typically, 1 ml) prepared from blood samples collected in evacuated tubes containing either EDTA, acid-citrate dextrose, or heparin as an anticoagulant. Virus particles were disrupted by resuspending the pellets in 200 [1.1 of lysis buffer (4 M guanidine thiocyanate, 0.1 M Tris HCl (pH 8.0), 0.5% sodium lauryl sarcosine, 1% dithiothreitol). RNA was extracted from viral lysates by using oligo(dT) linked to magnetic beads (Dynal, Oslo, Norway). Reverse transcription was performed with Superscript III (Invitrogen) at 50 degrees for 1 hour using primer 1.
# From the resultant cDNA either POL or RHIN sequences were amplified using the Advantage High Fidelity PCR kit (BD Biosciences; Clontech). POL amplification products are made using forward Primer 3 containing an Apal site and reverse Primer 4 containing a Xho 1 site. RHIN amplification products are made using forward Primer 2 containing a P1NA1 site and reverse Primer 4 containing a Xho 1 site.
# A retroviral vector designed to measure antiretroviral drug susceptibility was constructed by using an infectious molecular clone of HIV-1. The vector, referred to herein as an indicator gene viral vector (IGVV), is replication defective and contains a luciferase expression cassette inserted within a deleted region of the envelope (env) gene. The IGVV is described in U.S. Pat. No. 5,837,464 (International Publication Number WO 97/27319) which is hereby incorporated by reference in its entirety. This retroviral vector was further modified to allow insertion of either the entire pol gene (POL) or the portion of poi encoding amino acids 319-440 of reverse transcriptase, the RNase H portion of reverse transcriptase, and integrase (REIN) by engineering an Xho l restriction enzyme recognition site into vif. Prior to doing this, an Xho 1 site in nef was deleted. Resistance Test vectors (RTVs) were constructed by incorporating amplified POL or RHIN into the IGVV by using Apal and Xhol or PinAI and Xho 1 restriction sites respectively. RTVs were prepared as libraries (pools) in order to capture and preserve the pol or RHIN sequence heterogeneity of the virus in the patient. POL amplification products were digested with Apal and Xhol, purified by agarose gel electrophoresis, and ligated to ApaI- and Xhol-digested IGVV DNA. RHIN amplification products were digested with PinAI and Xho/, purified by agarose gel electrophoresis, and ligated to PinAI and Xhol-digested IGVV DNA. Ligation reactions were used to transform competent Escherichia coli (Invitrogen, Carlsbad, Calif.). An aliquot of each transformation was plated onto agar, and colony counts were used to estimate the number of patient-derived segments represented in each RTV library. RTV libraries that comprised less than 50 members are not considered representative of the patient virus. […]
# [1] = Sample 47 (K103K/N, V106V/A, Y181Y/C, G190G/A)
# [2] = Sample 58 (K103N, Y181Y/C, G190G/A)
# [3] = Sample 62 (K103H, P225P/H, T369T/I)
# [4] = Sample 90 (K103K/N, Y181C, G190A)
compound,measurement,setting,value
"O=C1Nc2ccc(Cl)cc2[C@@](C#CC2CC2)(C(F)(F)F)O1 [EFV, efavirenz]","fold change in IC50, RHIN",Sample 31 (K103N),1.1 fold
same,"fold change in IC50, RHIN",Sample 33 (K103S),0.7 fold
same,"fold change in IC50, RHIN",Sample 34,1.0 fold
same,"fold change in IC50, RHIN",Sample 35 (K103H),0.7 fold
same,"fold change in IC50, RHIN",Sample 36 (K103K/W),1.0 fold
same,"fold change in IC50, RHIN",Sample 38 (K103N),0.5 fold
same,"fold change in IC50, RHIN",Sample 39 (T369A),0.9 fold
same,"fold change in IC50, RHIN",Sample 42 (G190G/A),0.4 fold
same,"fold change in IC50, RHIN",Sample 45,1.0 fold
same,"fold change in IC50, RHIN",[1],0.5 fold
same,"fold change in IC50, RHIN",Sample 50 (K103N),0.5 fold
same,"fold change in IC50, RHIN",Sample 51,0.4 fold
same,"fold change in IC50, RHIN",Sample 52,1.0 fold
same,"fold change in IC50, RHIN",[2],0.9 fold
same,"fold change in IC50, RHIN",[3],1.8 fold and 1.83 fold
same,"fold change in IC50, RHIN",Sample 64 (T369T/A),0.3 fold
same,"fold change in IC50, RHIN",Sample 69,0.8 fold
same,"fold change in IC50, RHIN",Sample 72,1.0 fold
same,"fold change in IC50, RHIN","Sample 80 (K103K/N, Y181Y/C)",0.52 fold
same,"fold change in IC50, RHIN","Sample 81 (K103N, P225H)",1.2 fold
same,"fold change in IC50, RHIN",Sample 84,0.5 fold
same,"fold change in IC50, RHIN",Sample 85,1.2 fold
same,"fold change in IC50, RHIN",Sample 87,1.3 fold
same,"fold change in IC50, RHIN","Sample 89 (L1001, K103N)",1.2 fold
same,"fold change in IC50, RHIN",[4],0.7 fold
same,"fold change in IC50, RHIN",Sample 92,0.3 fold
same,"fold change in IC50, RHIN",Sample 93,0.9 fold
"Cc1ccnc2c1NC(=O)c1cccnc1N2C1CC1 [NVP, nevirapine]",FC,"Pool of patient sample 62, RT codons mutated: N348 (0.5), T369 (0.5), T377, T403",7.61
same,"fold change in IC50, RHIN",Sample 31 (K103N),2.1 fold
same,"fold change in IC50, RHIN",Sample 33 (K103S),1.0 fold
same,"fold change in IC50, RHIN",Sample 34,0.7 fold
same,"fold change in IC50, RHIN",Sample 35 (K103H),1.2 fold
same,"fold change in IC50, RHIN",Sample 36 (K103K/W),1.0 fold
same,"fold change in IC50, RHIN",Sample 38 (K103N),0.5 fold
same,"fold change in IC50, RHIN",Sample 39 (T369A),2.6 fold
same,"fold change in IC50, RHIN",Sample 42 (G190G/A),0.6 fold
same,"fold change in IC50, RHIN",Sample 45,1.3 fold
same,"fold change in IC50, RHIN",[1],1.0 fold
same,"fold change in IC50, RHIN",Sample 50 (K103N),0.6 fold
same,"fold change in IC50, RHIN",Sample 51,0.6 fold
same,"fold change in IC50, RHIN",Sample 52,0.9 fold
same,"fold change in IC50, RHIN",[2],1.7 fold
same,"fold change in IC50, RHIN",[3],7.6 fold and 7.61 fold
same,"fold change in IC50, RHIN",Sample 64 (T369T/A),0.4 fold
same,"fold change in IC50, RHIN",Sample 69,0.9 fold
same,"fold change in IC50, RHIN",Sample 72,1.6 fold
same,"fold change in IC50, RHIN","Sample 80 (K103K/N, Y181Y/C)",0.72 fold
same,"fold change in IC50, RHIN","Sample 81 (K103N, P225H)",1.4 fold
same,"fold change in IC50, RHIN",Sample 84,0.7 fold
same,"fold change in IC50, RHIN",Sample 85,2.1 fold
same,"fold change in IC50, RHIN",Sample 87,1.9 fold
same,"fold change in IC50, RHIN","Sample 89 (L1001, K103N)",2.7 fold
same,"fold change in IC50, RHIN",[4],1.2 fold
same,"fold change in IC50, RHIN",Sample 92,0.5 fold
same,"fold change in IC50, RHIN",Sample 93,1.1 fold
same,FC,"clone c03a of patient sample 62, RT codons mutated: T377, T403",1.64
same,FC,"clone c03b of patient sample 62, RT codons mutated: A355, T369, T377, T403",5.51
same,FC,"clone c08 of patient sample 62, RT codons mutated: H315, T369, T377",12.98
same,FC,"clone c10 of patient sample 62, RT codons mutated: N348, T377, T403",28.07
same,FC,"clone c12 of patient sample 62, RT codons mutated: T369, T377, T403",9.18
same,FC,"clone c14 of patient sample 62, RT codons mutated: Y342, T377, T403, R448",6.48
same,FC,"clone c15 of patient sample 62, RT codons mutated: N348, Y354, T403, N418",2.37
same,FC,"clone c16 of patient sample 62, RT codons mutated: T377, T403, D511 (0.5)",2.19
same,FC,"clone c18 of patient sample 62, RT codons mutated: A371, T377, T403",2.46
same,FC,"clone c20 of patient sample 62, RT codons mutated: T377, T403",3.97
same,FC,"clone c21 of patient sample 62, RT codons mutated: T377, T403, K550",5.16
same,FC,"clone c23 of patient sample 62, RT codons mutated: T369, T377, T403",10.11
same,FC,"clone c24 of patient sample 62, RT codons mutated: T377, T403",4.77
same,FC,"clone c26 of patient sample 62, RT codons mutated: T369, T377, T403",12.00
same,FC,"clone c28 of patient sample 62, RT codons mutated: T377, I393, T403, R448",0.54
"CC(C)Nc1cccnc1N1CCN(C(=O)c2cc3cc(NS(C)(=O)=O)ccc3[nH]2)CC1 [DLV, delavirdine]","fold change in IC50, RHIN",Sample 31 (K103N),1.1 fold
same,"fold change in IC50, RHIN",Sample 33 (K103S),0.7 fold
same,"fold change in IC50, RHIN",Sample 34,0.7 fold
same,"fold change in IC50, RHIN",Sample 35 (K103H),0.8 fold
same,"fold change in IC50, RHIN",Sample 36 (K103K/W),0.9 fold
same,"fold change in IC50, RHIN",Sample 38 (K103N),0.5 fold
same,"fold change in IC50, RHIN",Sample 39 (T369A),1.2 fold
same,"fold change in IC50, RHIN",Sample 42 (G190G/A),0.5 fold
same,"fold change in IC50, RHIN",Sample 45,1.0 fold
same,"fold change in IC50, RHIN",[1],0.6 fold
same,"fold change in IC50, RHIN",Sample 50 (K103N),0.4 fold
same,"fold change in IC50, RHIN",Sample 51,0.4 fold
same,"fold change in IC50, RHIN",Sample 52,0.9 fold
same,"fold change in IC50, RHIN",[2],1.5 fold
same,"fold change in IC50, RHIN",[3],3.4 fold and 3.36 fold
same,"fold change in IC50, RHIN",Sample 64 (T369T/A),0.3 fold
same,"fold change in IC50, RHIN",Sample 69,0.7 fold
same,"fold change in IC50, RHIN",Sample 72,1.7 fold
same,"fold change in IC50, RHIN","Sample 80 (K103K/N, Y181Y/C)",0.58 fold
same,"fold change in IC50, RHIN","Sample 81 (K103N, P225H)",0.9 fold
same,"fold change in IC50, RHIN",Sample 84,0.4 fold
same,"fold change in IC50, RHIN",Sample 85,1.4 fold
same,"fold change in IC50, RHIN",Sample 87,1.3 fold
same,"fold change in IC50, RHIN","Sample 89 (L1001, K103N)",1.5 fold
same,"fold change in IC50, RHIN",[4],0.6 fold
same,"fold change in IC50, RHIN",Sample 92,0.3 fold
same,"fold change in IC50, RHIN",Sample 93,0.7 fold
